Experiments:
skin fibroblasts BJ = type: cell-based; conditions: human, 72 h
Procedure: (§1) It is used for viability testing of eukaryotic cells. The effect of the compounds in several concentrations (maximum concentration of 100 microM and 3 three-fold dilutions) on viability of skin fibroblasts BJ and retinal epithelium cells ARPE-19 was evaluated after 72 hour treatment. The cells were maintained in standard cultivation medium DMEM with 10% fetal bovine serum. 5000 cells were seeded into 96-well plates 24 hours prior to the addition of test compound. DMSO vehicle was used as a negative control. After 72 hours, 1000-times concentrated solution of resazurin in DMSO was added to the cells zo the final concentration of 0.0125 mg/ml. Fluorescence (ex=570 nm, em=610 nm) was measured after 1 hour (ARPE-19) or 3 hours (BJ) of incubation. IC50 values were calculated from dose response curves using drc library for R programming environment.

[1] = tested on: retinal epithelium cells ARPE-19; type: cell-based; conditions: human, 72 h
Procedure: as §1

in vitro [2] = type: in vitro ADME; conditions: PAMPA, pH 7.4
Procedure: (§2) This system is further referred to as RF-MS. Preparation of the lyophilized samples for the analysis is described in the sections dedicated to the individual methods. Lyophilized samples were dissolved in the mobile phase (95% water, 5% acetonitrile, 0.1% formic acid) with respective internal standards. The dissolved samples were aspired directly from 96-well plates into a 10 μL sample loop and passed through a C4 cartridge (Agilent Technologies) with solvent A (95% water, 0.01% formic acid, 5% acetonitrile) at a flow rate of 1.5 mL/minute for 3 seconds. After the desalting step, the analyte retained on the cartridge was eluted with solvent B (95% acetonitrile, 5% 0.01% formic acid) to the mass spectrometer at a flow rate of 0.4 mL/minute for 7 seconds. Mass spectrometry was carried out using electrospray ionization in the positive ion mode. Daughter ion peaks were identified using a multiple-reaction monitoring protocol.
The parallel artificial membrane permeability assay (PAMPA) was performed using the Millipore MultiScreen filter MultiScreen-IP Durapore 0.45 μm plates and receiver plates (Merck Millipore) according to the manufacturer's protocol PC040EN00. […]
Calculations: The relative permeability log Pe was calculated as log Pe=log{Cx−ln(1−drugA/drugE)}, where C=(VA×VD)/{(VD+VA)×A×T}. […]

[3] = type: in vitro ADME; conditions: human, 2 μM
Procedure: as §2
Test compound (a final concentration of 2 μM) was incubated with human plasma (Transfusion Department, University Hospital Olomouc, Olomouc, Czech Republic) for 0, 15, 30, 60 and 120 min at 37° C. The reactions were stopped by addition of acetonitrile-methanol mixture (2:1). Samples were stored at −80° C. overnight and centrifuged (2811×g, 6 min, 4° C.). Supernatants were lyophilized.

[4] = tested on: U2OS cells transduced by transcriptional circadian reporter mBmal1-Luc; experiment: Circadian rhythm period, U2OS cells with Bmal1-Luc reporter (Example 1); type: cell-based, human; conditions: luminescence 144 hours, cosinor analysis, FIG. 1
Procedure: (§3) Human osteosarcoma U2OS cells were grown in standard DMEM with 10% fetal calf serum. U2OS cells were transduced with lentiviral particles containing the reporter pLV6-Bmal1-Luc (S. Brown, Addgene plasmid #68833) and selected under Blasticidin. The cell line was clonally expanded and a single monoclonal cell line was used for further experiments. Cells were cultured in a 384-well plate in growth medium to 90+% confluence. Test compound or vehicle (DMSO) was applied to recording medium with 100 U/ml penicillin, 100 μg/ml streptomycin, 1× GlutaMAX (ThermoFisher, Waltham, MA, USA), 10% fetal calf serum (Sigma) and 0.1 mM Luciferin-EF (Promega Madison, WI, USA). Luminescence was recorded every hour for an additional 144 hours in Luminoskan Ascent (ThermoFisher). Circadian rhythm analysis was performed using cosinor analysis.

[5] = tested on: U2OS cells with mBmal1-Luc reporter; experiment: Combination with other chronotherapeutics, mBmal1-Luc U2OS cells (Example 6); type: cell-based, human
Procedure: as §3, with “Test compounds” for “Test compound”, “(DMSO) were” for “(DMSO) was”, “streptomycin, 1×GlutaMAX” for “streptomycin, 1× GlutaMAX”, “for” for “for an”, “performed by” for “performed using”

Human fibroblasts BJ = experiment: Long-term cultivation of BJ fibroblasts, cell count (Example 9); type: cell-based; conditions: 12.5-100 µM, 12th day, FIG. 8
Procedure: Human fibroblasts BJ were maintained in standard cultivation medium DMEM with 10% fetal bovine serum. The experiment was performed in 24-well plates. 10,000 cells in DMEM medium with 10% fetal bovine serum were seeded into the wells. The test compound was added to a final concentration in the range of 12.5-100 µM after 24 hours. DMSO vehicle was used as a negative control. In order to obtained better idea of test variability, 8 control wells were used (columns A and D). The cultivation medium containing either test compound or DMSO was replaced twice a week. The cells were trypsinized on the 12th day and counted on Coulter Z2 apparatus.

[6] = tested on: Per2 gene expression (mPer2-Luc reporter); experiment: mPer2-Luc reporter expression in NIH3T3 cells (Example 5); type: cell-based, mouse; conditions: NIH3T3, first 1-12 hours after application, FIG. 5
Procedure: Mouse embryonic fibroblasts NIH3T3 cells were grown in standard DMEM with 10% fetal calf serum. NIH3T3 cells were transfected with 1 μg of Per2-Luc reporter (Meng, 2009) using GeneJuice (Novagen) and selected under hygromycin. The cell line was clonally expanded and a single monoclonal cell line was used for further experiments. Cells were cultured in a 96-well plate in growth medium to 90+% confluence. Test compound or vehicle (DMSO) was applied to recording medium with 100 U/ml penicillin, 100 μg/ml streptomycin, 1×GlutaMAX (ThermoFisher, Waltham, MA, USA), 10% fetal calf serum (Sigma) and 0.1 mM Luciferin-EF (Promega Madison, WI, USA). Luminescence was recorded every hour for additional 144 hours in Luminoskan Ascent (ThermoFisher).

[7] = tested on: Bmal1 gene expression (mBmal1-Luc reporter); experiment: mBmal1-Luc reporter expression in U2OS cells (Example 4); type: cell-based, human; conditions: first 5-15 hours after application, FIG. 4
Procedure: as §3, with “1×GlutaMAX” for “1× GlutaMAX”, “for” for “for an”, “(ThermoFisher).” for “(ThermoFisher). Circadian rhythm analysis was performed using cosinor analysis.”

[8] = tested on: NIH3T3 cells with mPer2-Luc reporter; experiment: Circadian rhythm period and amplitude, NIH3T3 cells with Per2-Luc reporter (Example 2); type: cell-based, mouse
Procedure: Mouse embryonic fibroblasts NIH3T3 cells were grown in standard DMEM with 10% fetal calf serum. NIH3T3 cells were transfected with 1 μg of Per2-Luc reporter (Meng, 2009) using GeneJuice (Novagen) and selected under hygromycin. The cell line was clonally expanded and a single monoclonal cell line was used for further experiments. Cells were cultured in a 96-well plate in growth medium to 90+% confluence. Test compound or vehicle (DMSO) was applied to recording medium with 100 U/ml penicillin, 100 μg/ml streptomycin, 1×GlutaMAX (ThermoFisher, Waltham, MA, USA), 10% fetal calf serum (Sigma) and 0.1 mM Luciferin-EF (Promega Madison, WI, USA). Luminescence was recorded every hour for an additional 144 hours in a Luminoskan Ascent (ThermoFisher). Circadian rhythm analysis was performed using cosinor analysis. […] The concentration and level of other proteins, whose rhythmic expression is controlled by an oscillator in the brain and peripheral tissues (so-called clock-controlled genes), is also necessarily affected.

in vitro [9] = type: in vitro ADME
Procedure: as §2
Caco-2 (American Tissue Type Collection) a MDR1-MCDK (Netherlands Cancer Institute) were cultured in DMEM medium with 10% fetal bovine serum. […]
Calculations: The apparent permeability coefficient was calculated as Papp=(dQ/dt)/(C0×A), where dQ/dt is the rate of permeation of the drug across the cell monolayer, C0 is the donor compartment concentration at time t=0 and A is the area of the cell monolayer. […]

[10] = tested on: explanted suprachiasmatic nuclei (SCN) of mPer2Luc mice; experiment: PER2::Luc rhythm in organotypic SCN explants (Example 3); type: cell-based, mouse
Procedure: amplitude of circadian expression of the PER2::Luc clock reporter in the explanted suprachiasmatic nuclei (SCN) of the hypothalamus, the central clock of mammals, of the transgenic mouse line Male and female mPer2Luc mice (strain B6.129S6-Per2tm1Jt/J, JAX, USA) (Yoo et al., 2004) were maintained in a light/dark cycle with 12 hours of light and 12 hours of darkness (LD12: 12), killed between 12:00 and 15:00, i.e. 6-9 hours after turning on the lights, by rapid cervical dislocation under isoflurane anesthesia, their brains were removed and 250 μm thick SCN slices in ice-cold HBSS medium were prepared using a vibratome (Leica, Wetzlar, Germany). Two explants containing SCN from each brain were prepared. Individual SCN explants were then placed on Millicell Culture Inserts (Merck, Darmstadt, Germany) inside 35 mm Petri dishes with test compound or DMSO vehicle in 1 ml air-buffered recording medium supplemented with 100 U/ml penicillin, 100 μg/ml streptomycin (Sigma-Aldrich, St. Luis, MO, USA), 1×GlutaMAX (ThermoFisher, Waltham, MA, USA), 5% fetal calf serum (Sigma) and 0.1 mM Luciferin-EF (Promega Madison, WI, USA). The dishes were sealed with vacuum Vaseline and glass coverslips and placed inside a LumiCycle (Actimetrics) for bioluminescence recording. Rhythm analysis was performed in Lumicycle Analysis software (Actimetrics).

cancer cell line A549 = experiment: Resazurin viability of A549 cells, pretreatment plus antineoplastics (Example 7); type: cell-based, human; conditions: pretreatment 100 μM, antineoplastics 3.3 μM, 72 incubation, FIG. 7
Procedure: Human cancer cell line A549 was maintained in standard cultivation medium DMEM with 10% fetal bovine serum. 1000 cells were seeded into the wells of 384-well plate in 30 microliters of RPMI medium. After 24 hours, dexamethasone (final concentration 100 nM) was added in order to synchronize circadian oscillator together with N-(furan-2-ylmethyl)-7H-purin-6-amin (final concentration 100 μM) or DMSO vehicle. After 12 hours, DMSO vehicle or the evaluated antineoplastics (the final concentration 3.3 μM) were added. The compounds were dosed by ECHO system, the DMSO solutions were 1000-times concentrated. After 72 incubation, 1000-times concentrated solution of resazurin in DMSO to a final concentration of 0.0125 mg/ml was added. Fluorescence was measured after 3-hour incubation. […] An equivalent cytotoxic effect can be therefore achieved by an application of lower dose of antineoplastics.

c1coc(CNc2ncnc3nc[nH]c23)c1 [N-(furan-2-ylmethyl)-7H-purin-6-amine]
IC10 (skin fibroblasts BJ): > 100 µM | IC10 [1]: > 100 µM | Papp at 18 h, 20 AM (in vitro [2]): 5.01 ×10⁻⁶ cm/s | Plasma stability (120 min) [% intact] [3]: 91 % intact | circadian rhythm period [4]: extends the circadian rhythm period | effect on the length of the circadian period in combination with compounds that extend the circadian period ([5]; 50 μM together with PF670, T0901317, KL001, rosiglitazon, SR9009, FIG. 6A-6E): additive or even synergistic effect | effect on the period when added to harmine ([5]; 50 μM together with harmine, FIG. 6F): caused a decrease of the period | cell growth (cell count) (Human fibroblasts BJ): did not have a negative effect on cell growth | Per2 gene expression [6]: regulates Per2 gene expression | Bmal1 gene expression [7]: affects Bmal1 gene expression | amplitude of circadian expression of mPer2-Luc ([8]; NIH3T3, FIG. 2): modulates the amplitude | circadian rhythm period ([8]; NIH3T3 mPer2-Luc, luminescence 144 hours, cosinor analysis, FIG. 2): prolongs the circadian rhythm period | Papp at 1 h, 10 μM (in vitro [9]; dog, MDCK-MDR1, pH 7.4): 315 ×10⁻⁶ cm/s | Papp at 2 h, 10 μM (in vitro [9]; human, Caco-2, pH 7.4): 76 ×10⁻⁶ cm/s | circadian rhythm period ([10]; FIG. 3B): prolongs the circadian rhythm period | amplitude ([10]; FIG. 3C): modulates the amplitude | activity of antineoplastics on A549 viability after pretreatment (cancer cell line A549): increases activity of antineoplastics

From US12558358B2 (UNIVERZITA PALACKEHO V OLOMOUCI, priority 2019, dated 2026)
